This is an account of results in publication PMC6930567, “NMR Study of the Secondary Structure and Biopharmaceutical Formulation of an Active Branched Antimicrobial Peptide” (Molecules, 2019).

Series [1] concerns CD1 mice. Kind of series: Acute toxicity in mice. The following applies: for signs of acute toxicity in vivo: 10/group, monitored 96 h, scored not-observable, mild, severe; for share of animals scored not-observable for signs of toxicity: i.v. single dose, chloride 20 and 30 mg/kg, acetate 25 and 30 mg/kg. It counts as in vivo, mouse. The protocol:
Acute toxicity of SET-M33 chloride was tested in mice and compared with the acetate and TFA counter-ions. Ten animals per group (five males and five females) were injected with two doses of SET-M33 chloride, 20 and 30 mg/kg, known to be below the LD50 [7]. Signs of toxicity were scored as not-observable, mild and severe. SET-M33 chloride and SET-M33 acetate scored 100% not-observable (Table 4), unlike the TFA that scored 100% toxicity at 25 mg/kg, described as 33% severe and 66% mild.
All animal experiments were conducted under the protocol approved by the Italian Ministry of Health at the Toscana Life Sciences Foundation animal facility in Siena, Italy (authorization n. 34/2016PR). Animals (10 CD1 mice/group, 20–22 g) were injected i.v. with SET-M33 acetate (group 1 and group 2) and SET-M33 chloride (group 3 and group 4), in a single dose. The doses were: group 1, 25 mg/kg SET-M33 acetate; group 2, 30 mg/kg SET-M33 acetate; group 3, 20 mg/kg SET-M33 chloride and group 4, 30 mg/kg SET-M33 chloride. Animals were monitored for 96 h. Signs of toxicity were checked four times a day by visual inspection and were scored as not-observable, mild and severe. Mice were weighed every day from arrival to the last day of the experiment. Animals with clear signs of distress, such as reduced mobility and weight loss greater than 20%, were anesthetized and sacrificed with carbon dioxide or by cervical dislocation.

The test system of series [2] is RAW264.7 mouse macrophages. Format: cell-based. As to conditions: 48 h. The protocol:
(§1) T24 human epithelial bladder cells, 16HBE14o- human bronchial epithelial cells and RAW264.7 mouse macrophages were plated at a density of 2.5 × 10^4 cells/well in 96-well microplates. The 16HBE14o- cells were previously incubated with coating solution (88% LHC basal medium, 10% bovine serum albumin, 30 µg/mL bovine collagen type I and 1% human fibronectin). Different concentrations of SET-M33 TFA, acetate and chloride were added 24 h after plating. Cells were grown for 48 h at 37 °C. Their viability was assessed by 3-(4,5-dimethylthiazol-2-yl)2,5-diphenyltetrazolium bromide (MTT) assay. EC50 values were obtained by dose-response variable slope analysis using GraphPad Prism 5.03 software (San Diego, CA, USA).

For series [3], the system named is T24 human bladder epithelial cells. Format: cell-based. The following applies: 48 h. The procedure:
as §1

In series [4] the test system is 16HBE14o- human bronchial epithelial cells. It counts as cell-based. As to conditions: 48 h. The procedure:
as §1

For series [5], the system named is E. coli TG-1. Format: cell-based. As to conditions: TG-1, 24 h. The procedure: (§2) Antimicrobial susceptibility was assessed by determining the minimum inhibitory concentrations (MICs) of SET-[…] acetate and SET-[…] chloride against E. coli TG-1 and P. aeruginosa PAO-1, using the broth microdilution technique according to 2017 EUCAST guidelines. The MIC assay measures visible inhibition of bacterial growth after 24 h exposure of bacteria to antibiotic in Mueller-Hinton (MH) broth. Assays were performed in triplicate using a bacterial inoculum of 5 × 10^4 CFU/well in a final volume of 100 μL. The twofold antibiotic concentration ranged from 0.1 μM to 12 μM for both peptides. MICs were read after 24 h of incubation at 35 °C.

Series [6] deals with P. aeruginosa PAO-1. It counts as cell-based. The following applies: PAO-1, 24 h. The procedure: as §2
Series [7] concerns CD1 mice. As to conditions: cited from earlier work; for signs of acute toxicity in vivo: scored not-observable, mild, severe. The procedure:
Table 4 Signs of acute toxicity in vivo of the three SET-M33 salts. | column: 20 mg/kg; 25 mg/kg || Acute toxicity of SET-M33 chloride was tested in mice and compared with the acetate and TFA counter-ions. Ten animals per group (five males and five females) were injected with two doses of SET-M33 chloride, 20 and 30 mg/kg, known to be below the LD50 [7]. Signs of toxicity were scored as not-observable, mild and severe. SET-M33 chloride and SET-M33 acetate scored 100% not-observable (Table 4), unlike the TFA that scored 100% toxicity at 25 mg/kg, described as 33% severe and 66% mild.

Where a name gives a salt, the structure may show the parent alone. Read-outs that look alike come from different tables or passages of the source. Positions of bridges follow the written chain, without caps; N, C: chain ends. Non-standard residues stand in square brackets, D forms with d. Residues, ends and D or L forms follow the SMILES beside them. Chains are numbered I, II in the order given. βAla = NCCC(=O)O

On to `CC[C@H](C)[C@H](NC(=O)[C@H](CCCCN)NC(=O)[C@@H](N)CCCCN)C(=O)N[C@@H](CCCNC(=N)N)C(=O)N[C@H](C(=O)N[C@@H](CCCNC(=N)N)C(=O)N[C@@H](CC(C)C)C(=O)N[C@@H](CO)C(=O)N[C@@H](C)C(=O)NCCCC[C@H](NC(=O)[C@H](C)NC(=O)[C@H](CO)NC(=O)[C@H](CC(C)C)NC(=O)[C@H](CCCNC(=N)N)NC(=O)[C@@H](NC(=O)[C@H](CCCNC(=N)N)NC(=O)[C@@H](NC(=O)[C@H](CCCCN)NC(=O)[C@@H](N)CCCCN)[C@@H](C)CC)C(C)C)C(=O)NCCCC[C@H](NC(=O)[C@H](CCCCNC(=O)[C@H](C)NC(=O)[C@H](CO)NC(=O)[C@H](CC(C)C)NC(=O)[C@H](CCCNC(=N)N)NC(=O)[C@@H](NC(=O)[C@H](CCCNC(=N)N)NC(=O)[C@@H](NC(=O)[C@H](CCCCN)NC(=O)[C@@H](N)CCCCN)[C@@H](C)CC)C(C)C)NC(=O)[C@H](C)NC(=O)[C@H](CO)NC(=O)[C@H](CC(C)C)NC(=O)[C@H](CCCNC(=N)N)NC(=O)[C@@H](NC(=O)[C@H](CCCNC(=N)N)NC(=O)[C@@H](NC(=O)[C@H](CCCCN)NC(=O)[C@@H](N)CCCCN)[C@@H](C)CC)C(C)C)C(=O)NCCC(=O)O)C(C)C` [SET-M33 chloride] (I: H-KKIRVRLSAKK[βAla]-OH / II: H-KKIRVRLSAK / III: H-KKIRVRLSA / IV: H-KKIRVRLSA; amide I:10-IV:C, I:11-II:C, II:10-III:C), for which the “signs of acute toxicity in vivo” value in series [1] (20 mg/kg i.v. single dose) and in series [1] (30 mg/kg i.v. single dose) was “not-observable” throughout. Moreover, the “share of animals scored not-observable for signs of toxicity” value in series [1] is 100%. Also, the results for the EC50 in series [2], in series [3] and in series [4] were 6.12 µM, 22.6 µM and 10.3 µM, respectively. Also, the minimal inhibitory concentration (MIC) in series [5] and in series [6] was 1.5 µM each time.
`CC[C@H](C)[C@H](NC(=O)[C@H](CCCCN)NC(=O)[C@@H](N)CCCCN)C(=O)N[C@@H](CCCNC(=N)N)C(=O)N[C@H](C(=O)N[C@@H](CCCNC(=N)N)C(=O)N[C@@H](CC(C)C)C(=O)N[C@@H](CO)C(=O)N[C@@H](C)C(=O)NCCCC[C@H](NC(=O)[C@H](C)NC(=O)[C@H](CO)NC(=O)[C@H](CC(C)C)NC(=O)[C@H](CCCNC(=N)N)NC(=O)[C@@H](NC(=O)[C@H](CCCNC(=N)N)NC(=O)[C@@H](NC(=O)[C@H](CCCCN)NC(=O)[C@@H](N)CCCCN)[C@@H](C)CC)C(C)C)C(=O)NCCCC[C@H](NC(=O)[C@H](CCCCNC(=O)[C@H](C)NC(=O)[C@H](CO)NC(=O)[C@H](CC(C)C)NC(=O)[C@H](CCCNC(=N)N)NC(=O)[C@@H](NC(=O)[C@H](CCCNC(=N)N)NC(=O)[C@@H](NC(=O)[C@H](CCCCN)NC(=O)[C@@H](N)CCCCN)[C@@H](C)CC)C(C)C)NC(=O)[C@H](C)NC(=O)[C@H](CO)NC(=O)[C@H](CC(C)C)NC(=O)[C@H](CCCNC(=N)N)NC(=O)[C@@H](NC(=O)[C@H](CCCNC(=N)N)NC(=O)[C@@H](NC(=O)[C@H](CCCCN)NC(=O)[C@@H](N)CCCCN)[C@@H](C)CC)C(C)C)C(=O)NCCC(=O)O)C(C)C` [SET-M33 acetate] (I: H-KKIRVRLSAKK[βAla]-OH / II: H-KKIRVRLSAK / III: H-KKIRVRLSA / IV: H-KKIRVRLSA; amide I:10-IV:C, I:11-II:C, II:10-III:C): the “signs of acute toxicity in vivo” value in series [1] (25 mg/kg i.v. single dose) was “not-observable”; in series [1] (30 mg/kg i.v. single dose), “not-observable”; in series [7] (20 mg/kg), “not-observable [6]”. Moreover, in series [1], the “share of animals scored not-observable for signs of toxicity” value was found to be 100%. Also, the concentration giving a half-maximal response (EC50) (in general, the midpoint of the concentration-response curve) in series [2] was determined as 5.1 µM; in series [3], 12.4 µM; in series [4], 9.62 µM. Besides, the MIC (usually the lowest concentration that inhibits growth of the organism) in series [5] was 1.5 µM; in series [6] it was 3 µM.
With `CC[C@H](C)[C@H](NC(=O)[C@H](CCCCN)NC(=O)[C@@H](N)CCCCN)C(=O)N[C@@H](CCCNC(=N)N)C(=O)N[C@H](C(=O)N[C@@H](CCCNC(=N)N)C(=O)N[C@@H](CC(C)C)C(=O)N[C@@H](CO)C(=O)N[C@@H](C)C(=O)NCCCC[C@H](NC(=O)[C@H](C)NC(=O)[C@H](CO)NC(=O)[C@H](CC(C)C)NC(=O)[C@H](CCCNC(=N)N)NC(=O)[C@@H](NC(=O)[C@H](CCCNC(=N)N)NC(=O)[C@@H](NC(=O)[C@H](CCCCN)NC(=O)[C@@H](N)CCCCN)[C@@H](C)CC)C(C)C)C(=O)NCCCC[C@H](NC(=O)[C@H](CCCCNC(=O)[C@H](C)NC(=O)[C@H](CO)NC(=O)[C@H](CC(C)C)NC(=O)[C@H](CCCNC(=N)N)NC(=O)[C@@H](NC(=O)[C@H](CCCNC(=N)N)NC(=O)[C@@H](NC(=O)[C@H](CCCCN)NC(=O)[C@@H](N)CCCCN)[C@@H](C)CC)C(C)C)NC(=O)[C@H](C)NC(=O)[C@H](CO)NC(=O)[C@H](CC(C)C)NC(=O)[C@H](CCCNC(=N)N)NC(=O)[C@@H](NC(=O)[C@H](CCCNC(=N)N)NC(=O)[C@@H](NC(=O)[C@H](CCCCN)NC(=O)[C@@H](N)CCCCN)[C@@H](C)CC)C(C)C)C(=O)NCCC(=O)O)C(C)C` [SET-M33 TFA] (I: H-KKIRVRLSAKK[βAla]-OH / II: H-KKIRVRLSAK / III: H-KKIRVRLSA / IV: H-KKIRVRLSA; amide I:10-IV:C, I:11-II:C, II:10-III:C), in series [7] (25 mg/kg), the “signs of acute toxicity in vivo” value is given as “mild to severe”, the “share of animals with mild signs of toxicity” value was 66%, the “share of animals with severe signs of toxicity” value is reported as 33% and the “toxicity score (share of animals with signs of toxicity)” value is listed as 100%. The same molecule came in with a concentration for a half-maximal effect (EC50) in series [2] of 3.85 µM. The molecule also came in with a 50% effective concentration (EC50) in series [3] of 13.6 µM. In series [4], this molecule returned a concentration for a half-maximal effect (EC50) of 11.1 µM.
